Earlier results in patent publication US6306435A, “Oral pharmaceutical preparation embedded in an oily matrix and methods of making the same” (Yung Shin Pharmaceutical Industrial Co. Ltd., priority 2000, dated 2001).
Read-outs that look alike come from different tables or passages of the source.

Experiments:
[1] = not given; remark: listed apart in the source

Compound: COc1ccc2[nH]c([S+]([O-])Cc3ncc(C)c(OC)c3C)nc2c1 (centres unmarked) [Omeprazole]
- solubility in alkaline solutions (alkaline solutions, as negatively charged ion): very soluble
- pKa (pyridinium) (pyridinium): ~ 4
- solubility in water (water): very slightly soluble
- degradation before reaching the small intestine ([1]; conventional oral dosage form): more than half
- effect of moisture, organic solvents and acidic substances on stability ([1]; moisture, organic solvents and acidic substances): deleterious effect
- half-life of degradation ([1]; pH 6.5): 18 h
- half-life of degradation ([1]; pH 11): about 300 days
- half-life of degradation ([1]; water solutions, pH-values below 4): less than 10 minutes
